Assay results from patent US12606528B2, “Methods and materials for inhibiting NF-kB activity” (University of Pittsburgh - Of the Commonwealth System of …, priority 2019, dated 2026).

System: NF-κB
Assay: NF-κB assay: THP1-NF-κB-LUC cells, LPS-stimulated secreted luciferase
Assay type: cell-based
Conditions: THP1-NF-κB-LUC cells, LPS-stimulated; read-out: IC50 (NF-κB assay)
Description: FIG. 1 contains line plots showing NF-κB activity of exemplified compounds. 25k THP1-NF-κB-LUC cells were dispensed into 384 well plate (per well). Cells were treated with compounds (2 μM and 0.2 μM) for 2 hours before addition of LPS (10 ng/mL) for 18 hours. Secreted luciferase activity were measured using quant-luc reagents (1 bag of luc reagent dilute to 40 mL, use 10 μL per well). Data were normalized to vehicle control and graphed. Structures of selected exemplified compounds are shown.
FIG. 2 contains heat charts showing NF-κB activity of exemplified compounds as a function of concentration. 25k THP1-NF-κB-LUC cells were dispensed into 384 well plate (per well). Cells were treated with compounds (with serial dilution) for 2 hours before addition of LPS (10 ng/ml) for 18 hours. Secreted luciferase activity were measured using quant-luc reagents (1 bag of luc reagent dilute to 40 mL, use 10 μL per well). Structures of selected exemplified compounds are shown.
25k THP1-NF-κB-LUC cells were dispensed into 384 well plate (per well). Cells were treated with compounds with various concentrations for 2 hours before addition of LPS (10 ng/mL) for 18 hours. Secreted luciferase activity were measured using quant-luc reagents (1 bag of luc reagent dilute to 40 mL, use 10 μL per well). Data were normalized to vehicle control and graphed. Compound IC50 towards inhibiting NF-κB were determined through Prism. Similarly, 10k human PBMCs cells were cultured in 384 well plate (per well). Cells were treated with compounds with various concentrations for 2 hours before addition of LPS (10 ng/ml) for 18 hours, and supernatants were collected and assayed for TNF ELISA. Compound IC50 towards inhibiting TNF release were determined through Prism. • Activity: “+”>10 μM, “++”>1 μM and <10 μM, “+++”>0.1 μM and <1 μM, “++++”<0.1 μM.

| IC50 [nM] | Compound |
| --- | --- |
| < 100 | CCN(CC)C(=O)c1ccc2nc(-c3ccccc3)c(-c3ccccc3)nc2c1 [BC18400] |
| 100 to 1000 | CCOc1ccccc1CNC(=O)c1ccc2nc(-c3ccc(F)cc3)c(-c3ccc(F)cc3)nc2c1 [BC18401] |
| 1000 to 10000 | CCCNC(=O)c1ccc2nc(-c3cccc(C)c3)c(-c3cccc(C)c3)nc2c1 [BC18402] |
| < 100 | CC(C)NC(=O)c1ccc2nc(-c3ccc(F)cc3)c(-c3ccc(F)cc3)nc2c1 [BC18403] |
| < 100 | CCOCCCNC(=O)c1ccc2nc(-c3ccc(F)cc3)c(-c3ccc(F)cc3)nc2c1 [BC18404] |
| < 100 | O=C(NCc1cccnc1)c1ccc2nc(-c3ccccc3)c(-c3ccccc3)nc2c1 [BC18405] |
| < 100 | CCC1CCN(CCNC(=O)c2ccc3nc(-c4ccccc4)c(-c4ccccc4)nc3c2)CC1 [BC18406] |
| 1000 to 10000 | CNC(=O)c1ccc2nc(-c3cccc(C)c3)c(-c3cccc(C)c3)nc2c1 [BC18407] |
| 100 to 1000 | COc1cccc(CNC(=O)c2ccc3nc(-c4ccc(F)cc4)c(-c4ccc(F)cc4)nc3c2)c1 [BC18408] |
| < 100 | O=C(c1ccc2nc(-c3ccccc3)c(-c3ccccc3)nc2c1)N1CCCC1 [BC18409] |
| < 100 | O=C(NCc1ccccn1)c1ccc2nc(-c3ccccc3)c(-c3ccccc3)nc2c1 [BC18410] |
| 1000 to 10000 | CCOc1ccc(-c2nc3ccc(C(=O)NCCN(CC)CC)cc3nc2-c2ccc(OCC)cc2)cc1 [BC18411] |
| 1000 to 10000 | O=C(c1ccc2nc(-c3ccccc3)c(-c3ccccc3)nc2c1)N1CCN(c2ccccc2)CC1 [BC18412] |
| 100 to 1000 | CSc1ccc(CNC(=O)c2ccc3nc(-c4ccc(F)cc4)c(-c4ccc(F)cc4)nc3c2)cc1 [BC18413] |
| > 10000 | Cc1cccc(-c2nc3ccc(C(=O)NCc4ccc(F)cc4)cc3nc2-c2cccc(C)c2)c1 [BC18414] |
| < 100 | CCCNC(=O)c1ccc2nc(-c3ccc(F)cc3)c(-c3ccc(F)cc3)nc2c1 [BC18415] |
| < 100 | CC(C)OCCCNC(=O)c1ccc2nc(-c3ccc(F)cc3)c(-c3ccc(F)cc3)nc2c1 [BC18416] |
| < 100 | CCN(CC)CCCNC(=O)c1ccc2nc(-c3ccccc3)c(-c3ccccc3)nc2c1 [BC18417] |

| IC50 [nM] | Compound |
| --- | --- |
| 100 to 1000 | CCCN1CCN(CCCNC(=O)c2ccc3nc(-c4ccccc4)c(-c4ccccc4)nc3c2)CC1 [BC18418] |
| 1000 to 10000 | CCCN(CCC)CCNC(=O)c1ccc2nc(-c3cccc(C)c3)c(-c3cccc(C)c3)nc2c1 [BC18419] |
| 100 to 1000 | O=C(NCc1ccc(F)cc1)c1ccc2nc(-c3ccc(F)cc3)c(-c3ccc(F)cc3)nc2c1 [BC18420] |
| > 10000 | O=C(NCc1ccc(Cl)cc1)c1ccc2nc(-c3ccccc3)c(-c3ccccc3)nc2c1 [BC18421] |
| < 100 | COCCNC(=O)c1ccc2nc(-c3ccccc3)c(-c3ccccc3)nc2c1 [BC18422] |
| < 100 | C=CCN(CC=C)C(=O)c1ccc2nc(-c3ccccc3)c(-c3ccccc3)nc2c1 [BC18423] |
| 100 to 1000 | Cc1cccc(CNC(=O)c2ccc3nc(-c4ccc(F)cc4)c(-c4ccc(F)cc4)nc3c2)c1 [BC18424] |
| 1000 to 10000 | Cc1cccc(-c2nc3ccc(C(=O)NCCN4CCOCC4)cc3nc2-c2cccc(C)c2)c1 [BC18425] |
| < 100 | CCN(CC)CCNC(=O)c1ccc2nc(-c3ccc(F)cc3)c(-c3ccc(F)cc3)nc2c1 [BC18426] |
| < 100 | CCNC(=O)c1ccc2nc(-c3ccc(F)cc3)c(-c3ccc(F)cc3)nc2c1 [BC18427] |
| < 100 | CCN(CC)CCNC(=O)c1ccc2nc(-c3ccccc3)c(-c3ccccc3)nc2c1 [BC18428] |
| < 100 | O=C(c1ccc2nc(-c3ccccc3)c(-c3ccccc3)nc2c1)N1CCOCC1 [BC18429] |
| 1000 to 10000 | Cc1cccc(-c2nc3ccc(C(=O)NCCN4CCCC4)cc3nc2-c2cccc(C)c2)c1 [BC18430] |
| 100 to 1000 | O=C(NC1CCCCC1)c1ccc2nc(-c3ccc(F)cc3)c(-c3ccc(F)cc3)nc2c1 [BC18431] |
| 100 to 1000 | CCCCNC(=O)c1ccc2nc(-c3ccccc3)c(-c3ccccc3)nc2c1 [BC18432] |
| > 10000 | Cc1ccc(CNC(=O)c2ccc3nc(-c4ccc(C)cc4)c(-c4ccc(C)cc4)nc3c2)cc1 [BC18433] |
| 100 to 1000 | CCCN(Cc1ccc(C)cc1)C(=O)c1ccc2nc(-c3ccccc3)c(-c3ccccc3)nc2c1 [BC18434] |

Same assay, conditions: THP1-NF-κB-LUC cells; compounds 2 hours before LPS (10 ng/mL) for 18 hours; secreted luciferase; read-out: IC50 (NF-κB assay)

| IC50 [nM] | Compound |
| --- | --- |
| 100 to 1000 | N#Cc1ccc2c(=O)c(S(=O)(=O)c3ccc(F)c(Cl)c3)c[nH]c2c1 [BC18300] |
| 1000 to 10000 | O=c1c(S(=O)(=O)c2cccc(F)c2)c[nH]c2c(F)cccc12 [BC18301] |
| < 100 | Cc1ccc(S(=O)(=O)c2c[nH]c3cc(Cl)ccc3c2=O)cc1F [BC18302] |
| < 100 | Cc1ccc(S(=O)(=O)c2c[nH]c3ccc(F)cc3c2=O)cc1F [BC18303] |
| 1000 to 10000 | O=c1c(S(=O)(=O)c2cc(Cl)cc(Cl)c2)c[nH]c2ccc(Cl)cc12 [BC18304] |
| 100 to 1000 | N#Cc1ccc2[nH]cc(S(=O)(=O)c3cc(Cl)cc(Cl)c3)c(=O)c2c1 [BC18305] |
| > 10000 | N#Cc1ccc(S(=O)(=O)c2c[nH]c3ccc(F)cc3c2=O)cc1 [BC18306] |
| 100 to 1000 | COc1ccc2[nH]cc(S(=O)(=O)c3ccc(C)c(F)c3)c(=O)c2c1 [BC18307] |
| > 10000 | COc1ccc2[nH]cc(S(=O)(=O)c3cc(Cl)cc(Cl)c3)c(=O)c2c1 [BC18308] |
| 1000 to 10000 | COc1ccc(S(=O)(=O)c2c[nH]c3cc(F)ccc3c2=O)cc1 [BC18309] |
| < 100 | N#Cc1cccc(S(=O)(=O)c2c[nH]c3cc(C#N)ccc3c2=O)c1 [BC18310] |
| > 10000 | Cc1ccc2[nH]cc(S(=O)(=O)c3ccc(C#N)cc3)c(=O)c2c1 [BC18311] |
| > 10000 | COc1ccc2[nH]cc(S(=O)(=O)c3ccc(C#N)cc3)c(=O)c2c1 [BC18312] |
| > 10000 | Cc1ccc(S(=O)(=O)c2cc3cc(Cl)ccc3oc2=O)cc1Cl [BC18313] |
| > 10000 | Cc1ccc(S(=O)(=O)c2cc3cc(Br)ccc3oc2=O)cc1Cl [BC18314] |
| > 10000 | Cc1cc(C)c(S(=O)(=O)c2ccc(Br)cc2)c(=O)[nH]1 [BC18315] |
| > 10000 | COc1ccc2cc(S(=O)(=O)c3ccc(C)c(Cl)c3)c(=O)oc2c1 [BC18316] |
| > 10000 | N#Cc1cccc(S(=O)(=O)c2cc3cc(Br)ccc3oc2=O)c1 [BC18317] |
| > 10000 | CCc1ccc(C(=O)C2=CN(c3ccccc3)c3ccc(F)cc3S2(=O)=O)cc1 [BC18318] |
| > 10000 | COc1cccc2cc(S(=O)(=O)c3ccc(C)c(Cl)c3)c(=O)oc12 [BC18319] |
| < 100 | CCc1ccc(S(=O)(=O)c2c[nH]c3cc(F)c(F)cc3c2=O)cc1 [BC18320] |

| IC50 [nM] | Compound |
| --- | --- |
| 100 to 1000 | CCc1ccc(S(=O)(=O)c2c[nH]c3ccc(F)cc3c2=O)cc1 [BC18321] |
| 1000 to 10000 | CC(C)(C)c1ccc(S(=O)(=O)c2c[nH]c3ccc(Br)cc3c2=O)cc1 [BC18322] |
| 100 to 1000 | CCOc1ccc2[nH]cc(S(=O)(=O)c3ccc(CO)cc3)c(=O)c2c1 [BC18323] |
| > 10000 | Cc1ccc(S(=O)(=O)c2cn(C)c3cc(F)c(F)cc3c2=O)cc1 [BC18324] |
| > 10000 | CCn1cc(S(=O)(=O)c2ccc(C)cc2)c(=O)c2cc(F)ccc21 [BC18325] |
| > 10000 | CCc1ccc2c(c1)c(=O)c(S(=O)(=O)c1ccc(C)cc1)cn2C [BC18326] |
| > 10000 | CCOc1ccc2c(c1)c(=O)c(S(=O)(=O)c1ccc(Cl)cc1)cn2C [BC18327] |
| 1000 to 10000 | Cc1ccc(S(=O)(=O)c2cn(Cc3cccc(C)c3)c3ccc(F)cc3c2=O)cc1 [BC18328] |
| > 10000 | COc1ccc(S(=O)(=O)c2cn(CC(=O)Nc3ccc(C)cc3)c3ccc(Cl)cc3c2=O)cc1 [BC18329] |
| > 10000 | COc1ccc(S(=O)(=O)c2cn(CC(=O)Nc3ccc(C)cc3)c3ccc(F)cc3c2=O)cc1 [BC18330] |
| > 10000 | CCc1ccc(S(=O)(=O)c2cn(CCO)c3cc(F)c(F)cc3c2=O)cc1 [BC18331] |
| > 10000 | COc1ccc(S(=O)(=O)c2cn(CC(=O)Nc3ccccc3)c3ccc(F)cc3c2=O)cc1 [BC18332] |
| > 10000 | COc1cc2c(=O)c(S(=O)(=O)c3ccc(Cl)cc3)cn(Cc3ccccc3F)c2cc1OC [BC18333] |
| > 10000 | COc1ccc(S(=O)(=O)c2cn(CC(=O)Nc3ccc(Cl)cc3)c3ccc(C)cc3c2=O)cc1 [BC18334] |
| > 10000 | COc1ccc(S(=O)(=O)c2cn(CC(=O)Nc3ccc(F)cc3)c3ccc(C)cc3c2=O)cc1 [BC18335] |
| > 10000 | CCCCn1cc(S(=O)(=O)c2ccc(C)cc2)c(=O)c2cc(Cl)ccc21 [BC18336] |
| > 10000 | COc1cc2c(=O)c(S(=O)(=O)c3ccccc3)cn(Cc3cccc(Cl)c3)c2cc1OC [BC18337] |
| > 10000 | COc1ccc2[nH]cc(S(=O)(=O)c3ccc(OC)c(OC)c3)c(=O)c2c1 [BC18338] |
| 100 to 1000 | N#Cc1ccc(S(=O)(=O)c2c[nH]c3cc(F)ccc3c2=O)cc1F [BC18339] |
| < 100 | O=c1c(S(=O)(=O)c2ccc(F)c(F)c2)c[nH]c2c(F)ccc(Cl)c12 [BC18340] |
